Measurements from patent publication US7632817B2, “Peptide decoys for the preparation of medicaments intended for the prevention or treatment of autoimmune pathologies or disorders linked to the appearance of antibodies directed against exogenous proteins” (Centre National de la Recherche Scientifique, priority 2001, dated 2009).
Where no end group is shown, it is not given here.

Legend:
2C11 antibody [1] = assay: Bethesda functional coagulation test: neutralization of the inhibiting activity of 2C11 by peptides; assay type: biochemical, human; conditions: for neutralization of the inhibiting activity of 2C11 (in words): 2C11 3.5 nM
Excerpt: This functional test (Kasper, C. K. & Pool, J. G. (1975) Letter: Measurement of mild factor VIII inhibitors in Bethesda units, Thromb Diath Haemorrh. 34, 875-6) consists of measuring the time necessary for a mixture composed of different coagulation factors (FIXa, FVIII, phospholipides, calcium etc.) in order to coagulate completely. The inhibiting effect of an antibody is characterized in such a test by an extension of the coagulation time, the inhibiting ability of the antibody becomes greater as the extension of the coagulation time increases. The inhibiting character of an antibody is expressed in Bethesda units, which corresponds to the reciprocal concentration of antibodies in order to neutralize 50% of the coagulant activity of the FVIII. In contrast, the neutralizing effect of the peptides is translated by a return to the initial coagulation time obtained in the absence of inhibitor.
The functional test followed is derived from the abovementioned test described by Kasper. The anti-FVIII monoclonal antibodies are diluted in an 0.05 M imidazole buffer, pH 7.3. An equal volume of this preparation (250 μl) with normal plasma buffered in imidazole (0.1 M, pH 7.4) are mixed and incubated for 2 hours at 37° C. Similarly, normal plasma buffered in imidazole is mixed with a non-specific antibody which constitutes the control. The inhibiting activity of an antibody is read from a semi-logarithmic graph representing the correlation between the residual activity of the FVIII and the inhibiting activity.
This mixture is then treated as above.
Firstly, the Inventors evaluated in a functional coagulation test (Bethesda test) the ability of peptide 107 to restore the procoagulant activity of FVIII in the presence of 2C11. FIG. 2 depicts the dose-dependent neutralization of the inhibiting activity of 2C11 by peptide 107. […] However, higher peptide concentrations are necessary in order to achieve an effectiveness similar to that of peptide 107 (data not shown).
FIG. 2 represents the evolution of the activity of factor VIII, evaluated by the Bethesda test, in the presence of 3.5 nM of 2C11 antibody as a function of peptide concentration. The 2C11 antibody was incubated overnight at 4° C. in the presence of a control peptide or peptide 107 (SCHAWSNRRTCR) (SEQ ID NO: 10) in variable concentration. The factor VIII was then incubated for 2 hours at 37° C. with these peptide-antibody mixtures or with peptide 107 alone, then its residual activity was measured with a coagulometer, in one stage.

[2] = test system: 2C11 antibody (binding to factor VIII); assay: ELISA: inhibition of binding of 2C11 antibody to immobilized FVIII by soluble peptides; set-up: species or system human
Method: The FVIII is immobilized on the ON plate at 4° C. In parallel, the inhibitor antibody is preincubated with its epitope peptide(s) in the ON range at 4° C. in 0.1% PBS-T-2% milk. After saturation for 1 hour with 0.1% PBS-T-2% milk, the Ab-peptide mixtures are incubated with the immobilized FVIII for 2 hours at 37° C. Between each of these incubations, 3 washings with 0.1% PBS-T are carried out except after the saturation. Detection of the FVIII-Ab complex is achieved by a mouse or human anti-IgG coupled to peroxidase diluted to 1:3000 incubated for 1 hour at 37° C. After 5 washings with 0.1% PBS-T, the peroxidase substrate (OPD) is added. The reaction takes place for 30 minutes in the dark then measurement of the absorbance is carried out at 450 nm. After stopping the reaction by the addition of H2SO4 4N, a new measurement is carried out at 490 nm.
The blocking activity of the decoys can be verified in vitro in an ELISA test. […] The neutralizing ability of the decoy can be confirmed in a functional test such as the Bethesda Test (method of Kasper, [Kasper et al., 1975, Thromb. Diath. Haemorrh. 34, 875-6]).
The Inventors studied the ability of these soluble peptides to inhibit the binding of the 2C11 antibody to factor VIII in an ELISA test in vitro in the following manner: immobilization of FVIII, pre-incubation of 2C11 with the soluble peptides in the range (200 μM, 20 μM, 2 μM, 200 nM, 20 nM, 2 nM) overnight at 4° C., then incubation of this premixture on the FVIII, then development of the 2C11 antibody. The results obtained are indicated hereafter.

[3] = test system: FVIII inhibitors in serums of hemophilia patients; assay: Reactivity of serums of hemophilia patients with inhibitors with peptide 107; assay type: binding, human; conditions: out of 12 serums of hemophilia patients with inhibitors; preliminary study
Excerpt: Thirdly, the Inventors looked at whether the neutralizing properties of peptide 107 vis-à-vis 2C11 could also be applied to other serums of hemophilia patients with inhibitors.

2C11 antibody [4] = assay: In vivo neutralization of 2C11 in mice deficient in FVIII given human FVIII; set-up: species or system mouse
Method: Secondly, the neutralization properties of peptide 107 were studied in vivo, using a mouse model deficient in FVIII. […] Having determined this, 2C11 antibody ([…]) incubated alone, in the presence of peptide 107, or a control peptide (650 μM and 700 μM, respectively) was injected into the tail vein of three groups of mice respectively. Thirty minutes later, the FVIII plasma count of these mice was reconstituted by the injection of 0.5 UI of human FVIII and after fifteen minutes the plasma procoagulant activity was measured.
The 2C11 antibody (16.5 nM) or a mixture containing the 2C11 antibody (16.5 nM) and peptide 107 (650 μM) or a control peptide (700 μM) was injected into the tail vein of a “knock out” mouse, deficient in factor VIII, at a rate of 2.5 μg of 2C11 antibody, 1 mg of peptide 107 and 1 mg of control peptide. After 30 minutes, 0.5 UI of human factor VIII was injected and the plasma procoagulant activity was then measured by a chromogenic test 15 minutes later.
The percentage of residual activity of factor VIII is represented on the Y-axis. Bar A represents the effect of the injection of factor VIII without prior injection of antibodies (100% of residual activity). Bar B represents the effect of the injection of the 2C11 antibody alone prior to the injection of factor VIII. […]

factor VIII = assay: Bethesda test: effect on procoagulant activity of factor VIII; assay type: biochemical, human; conditions: no antibody
Excerpt: This functional test (Kasper, C. K. & Pool, J. G. (1975) Letter: Measurement of mild factor VIII inhibitors in Bethesda units, Thromb Diath Haemorrh. 34, 875-6) consists of measuring the time necessary for a mixture composed of different coagulation factors (FIXa, FVIII, phospholipides, calcium etc.) in order to coagulate completely. The inhibiting effect of an antibody is characterized in such a test by an extension of the coagulation time, the inhibiting ability of the antibody becomes greater as the extension of the coagulation time increases. […]
The functional test followed is derived from the abovementioned test described by Kasper. […] The inhibiting activity of an antibody is read from a semi-logarithmic graph representing the correlation between the residual activity of the FVIII and the inhibiting activity.
FIG. 1 represents the effect of the 2C11 antibody on the activity of factor VIII evaluated by the Bethesda test. Factor VIII was incubated in the presence of 3.5 nM of 2C11 antibody for 2 hours at 37° C., the residual activity of factor VIII was then measured with a coagulometer, in one stage.
FIG. 2 represents the evolution of the activity of factor VIII, evaluated by the Bethesda test, in the presence of 3.5 nM of 2C11 antibody as a function of peptide concentration. […]

[5] = peptide concentration 0.002 (2 nM)
[6] = peptide concentration 0.02 (20 nM)
[7] = peptide concentration 20 (range: 20 μM)
[8] = peptide concentration 200 (range: 200 μM), pre-incubation overnight at 4° C.

% inhibition of 2C11 binding to FVIII [2, 5] [%]	% inhibition of 2C11 binding to FVIII [2, 6] [%]	% inhibition of 2C11 binding to FVIII ([2]; peptide concentration 2 (2 μM)) [%]	% inhibition of 2C11 binding to FVIII [2, 7] [%]	% inhibition of 2C11 binding to FVIII [2, 8] [%]	IC50 (2C11 antibody [1]; 2C11 concentration 3.5 nM) [µM]	inhibition of the 2C11 Ab/FVIII bond (in words) [2]	Sequence	neutralization of the inhibiting activity of 2C11 (in words) (2C11 antibody [1])	peptide concentration for total neutralization of 2C11 inhibiting effect (2C11 antibody [1]; 2C11 concentration 3.5 nM) [µM]	number of patient serums reacting with the peptide [3]	procoagulant activity of the FVIII maintained (2C11 antibody [4]; 2C11 16.7 nM + peptide 650 μM injected in tail vein, 0.5 UI human FVIII after 30 min, measured 15 min later) [%]	neutralizing effect on 2C11 in vivo (in words) (2C11 antibody [4]; FVIII-deficient mice, peptide 107 650 μM, control peptide 700 μM)	effect of peptide incubated with FVIII alone on procoagulant activity of FVIII (factor VIII)
0	0	0.00	21.99	36.56			CMKWSNRSSRWC (Ac-CMKWSNRSSRWC; cysteine pairing not given here) [compound 106]	effectively neutralize					
0	0	37.33	80.04	90.48	19	the most effective	SCHAWSNRRTCR [peptide 107]	makes it possible to neutralize the effect of the 2C11 antibody	~100	2	52	specifically neutralizes the effect of the 2C11 antibody in vivo	does not at all modify the procoagulant activity of the FVIII
0	0	10.27	45.04	75.58			CSKWHNRSKRHC (Ac-CSKWHNRSKRHC; cysteine pairing not given here) [compound 105]	effectively neutralize					
0	0	12.46	37.48	75.05			RCHAWSNRKSCV (Ac-RCHAWSNRKSCV; cysteine pairing not given here) [compound 109]	effectively neutralize					
0	0	13.44	30.68	63.71			ECGSHAWGRRCK (chain 1 Ac-ECGSHAWGRRCK; chain 2 Ac-ECGSHAWGRRCK; cysteine pairing not given here) [compound 104]	effectively neutralize					
0	0	15.79	25.99	60.69			QCHTWSNRRSCL (Ac-QCHTWSNRRSCL; cysteine pairing not given here) [compound 108]	effectively neutralize					
0	0	3.47	28.26	62.73			KCGRWSNRSSCT (Ac-KCGRWSNRSSCT; cysteine pairing not given here) [compound 103]	effectively neutralize					
